Measured values from patent US11987604B2, “Fusion-proteins based on human ferritin and protease-cleavable peptides and their use as chemotherapeutics carriers” (THENA BIOTECH S.R.L., priority 2017, dated 2024).

Key:
Type in all cases: cell-based
SW480 colon cancer cells = test: Cell internalization and localization by confocal microscopy, SW480; details: SW480, 3 h incubation at 37° C., 20 μM MIT
Experimental: (§1) Left panels: Lamin A/C staining (nuclear membrane marker, green); central panels: MIT (blue); right panels: merge. The white bar indicates a 10 μm length.
(§2) MIT concentration is 20 μM in all experiments. The white bar indicates a 20 μm length.
(§3) To determine whether MIT containing HFt based constructs undergo cell surface binding and/or internalization, they were incubated with colon cancer cells SW480 and SW620 at 37° C. for 1 or 3 h and MIT associated fluorescence was visualized by confocal microscopy. […] In particular, MIT localizes in intranuclear structures assumed to be nucleoli on the basis of size, position and shape, as previously proposed for colon carcinoma and breast cancer cells.

SW620 colon cancer cells = test: Cell internalization and localization by confocal microscopy, SW620; details: SW620, 3 h incubation at 37° C., 20 μM MIT
Experimental: as §1, §2, §3

[1] = tested on: pancreatic MiaPaCa2 cancer cells; test: XTT viability assay, MiaPaCa2; details: Homo sapiens, MIA PaCa-2, read-out: killing efficacy (IC50)
[2] = tested on: pancreatic PaCa 44 cancer cells; test: XTT viability assay, PaCa 44; details: Homo sapiens, Paca44 cells, read-out: killing efficacy (IC50)
[3] = tested on: pancreatic Capan 1 cancer cells; test: XTT viability assay, Capan 1; details: Homo sapiens, Capan 1 cells, read-out: killing efficacy (IC50)

| Compound | MIT localization in cells (SW480 colon cancer cells) | MIT localization in cells (SW620 colon cancer cells) | IC50 [1] [µM] | IC50 [2] [µM] | IC50 [3] [µM] |
| --- | --- | --- | --- | --- | --- |
| O=C1c2c(O)ccc(O)c2C(=O)c2c(NCCNCCO)ccc(NCCNCCO)c21 [MIT, mitoxantrone] | partly present also in the cytoplasm | partly present also in the cytoplasm | – | – | – |
| Nc1ccn([C@@H]2O[C@H](CO)[C@@H](O)C2(F)F)c(=O)n1 [Gemcitabine] | – | – | 1.15 | 6.75 | 2.8 |
